From US8598314B2 (priority 2007, dated 2013)

Assays:
[1] = biological target: T1, human GIP receptor (HEK-GIPR) (Homo sapiens, UniProt P48546); test: GIP receptor binding (RBA) displacement assay; conditions: read-out: GIP RBA % inhibition at 10 nM
T1 construct: expressed in transfected cells
T1 sequence (P48546 22-466): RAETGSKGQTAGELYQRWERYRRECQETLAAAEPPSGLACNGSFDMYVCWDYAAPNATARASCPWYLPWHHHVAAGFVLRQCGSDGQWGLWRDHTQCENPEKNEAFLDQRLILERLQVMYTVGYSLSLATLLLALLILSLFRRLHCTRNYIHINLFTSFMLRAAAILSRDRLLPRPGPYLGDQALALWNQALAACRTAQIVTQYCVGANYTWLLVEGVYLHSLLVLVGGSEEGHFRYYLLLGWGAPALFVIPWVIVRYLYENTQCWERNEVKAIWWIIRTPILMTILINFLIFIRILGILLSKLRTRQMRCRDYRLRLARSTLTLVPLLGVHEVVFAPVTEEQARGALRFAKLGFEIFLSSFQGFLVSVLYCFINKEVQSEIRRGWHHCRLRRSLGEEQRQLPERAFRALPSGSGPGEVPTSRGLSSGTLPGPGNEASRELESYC
Procedure: Membrane fractions were prepared from confluent cell cultures of HEK-GIPR, snap frozen, and stored at −80° C. until use. […] Reactions were allowed to proceed to equilibrium for 90 minutes at room temperature with constant shaking. The reaction mixtures were then filtered through 96-well glass fiber filter plates separating bound and unbound fractions of radioligand.

[2] = Peptide stability in human kidney brush border membranes; conditions: Table 6
[3] = test system: NIH/Swiss female mice; test: Transient effect on blood glucose and body weight; assay type: in vivo; conditions: 250 nmol/kg subcutaneous injection; for effect on body weight (in words): FIGS. 14B and 15B; for return of body weight to pre-treatment levels (in words): day 5, FIG. 15B
Procedure: A subcutaneous injection (200 μL) of vehicle (PBS) or test compound was given to NIH/Swiss female mice immediately following baseline glucose and body weight measurement. Tail blood glucose samples were measured (OneTouch® Ultra®, LifeScan Inc., Milpitas, Calif.) at baseline (time=0) and 2, 4, 8, 24, 48, 72 and 96 hrs. Body weight was measured daily. Significant test sample effects were identified by ANONA (p<0.05) followed by Dunnett's post test (GraphPad PRISM®, version 4.00 for Windows, GraphPad Software, San Diego, Calif.). Points in FIG. 14A, FIG. 14B, FIG. 15A and FIG. 15B represent mean±SD (standard deviation).

| SMILES | inhibition at 0.01 µM [1] | Stability in hKBBM [2] | effect on body weight (in words) [3] | return of body weight to pre-treatment levels (in words) [3] |
| --- | --- | --- | --- | --- |
| CC[C@H](C)[C@H](NC(=O)[C@H](CO)NC(=O)[C@H](Cc1ccc(O)cc1)NC(=O)[C@H](CC(=O)O)NC(=O)[C@H](CO)NC(=O)[C@@H](NC(=O)[C@H](Cc1ccccc1)NC(=O)[C@@H](NC(=O)CNC(=O)[C@H](CCC(=O)O)NC(=O)[C@@H](C)NC(=O)[C@@H](N)Cc1ccc(O)cc1)[C@@H](C)O)[C@@H](C)CC)C(=O)N[C@@H](C)C(=O)N[C@@H](CC(C)C)C(=O)N[C@@H](CC(=O)O)C(=O)N[C@@H](CCCCN)C(=O)N[C@H](C(=O)N[C@@H](Cc1c[nH]cn1)C(=O)N[C@@H](CCC(N)=O)C(=O)N[C@@H](CCC(N)=O)C(=O)N[C@@H](CC(=O)O)C(=O)N[C@@H](Cc1ccccc1)C(=O)N[C@H](C(=O)N[C@@H](CC(N)=O)C(=O)N[C@@H](Cc1c[nH]c2ccccc12)C(=O)N[C@@H](CC(C)C)C(=O)N[C@@H](CC(C)C)C(=O)N[C@@H](C)C(=O)N[C@@H](CCC(N)=O)C(=O)N[C@@H](CCCCN)C(=O)N1CCC[C@H]1C(=O)N[C@@H](CO)C(=O)N[C@@H](CO)C(=O)NCC(=O)N[C@@H](C)C(=O)N1CCC[C@H]1C(=O)N1CCC[C@H]1C(=O)N1CCC[C@H]1C(=O)N[C@@H](CO)C(=O)NCCOCCOCC(=O)NCCOCCOCC(=O)NCCCCCCCCCCC(=O)NCCC(=O)NCCC(=O)NCCCC[C@H](NC(=O)[C@@H]1CCC(=O)N1)C(=O)N[C@@H](Cc1c[nH]c2ccccc12)C(=O)N[C@@H](C)C(=O)N1CCC[C@H]1C(=O)O)C(C)C)[C@@H](C)CC [[^2D-Ala^14Leu] GIP(1-30)-exendin-4(31-39)-Ado-Ado-Aun-βAla-βAla-ε-NH-Lys(α-NH-Pyroglutamoyl)-Trp-Ala-Pro] | 86% | – | – | – |
| CC[C@H](C)[C@H](NC(=O)[C@H](Cc1ccccc1)NC(=O)[C@H](CC(C)C)NC(=O)[C@H](CCCNC(=N)N)NC(=O)[C@@H](NC(=O)[C@H](C)NC(=O)[C@H](CCC(=O)O)NC(=O)[C@H](CCC(=O)O)NC(=O)[C@H](CCC(=O)O)NC(=O)[C@H](CC(C)C)NC(=O)[C@H](CCC(N)=O)NC(=O)[C@H](CCCCN)NC(=O)[C@H](CO)NC(=O)[C@H](CC(C)C)NC(=O)[C@H](CC(=O)O)NC(=O)[C@H](CO)NC(=O)[C@@H](NC(=O)[C@H](Cc1ccccc1)NC(=O)[C@@H](NC(=O)CNC(=O)[C@H](CCC(=O)O)NC(=O)CNC(=O)[C@@H](N)Cc1c[nH]cn1)[C@@H](C)O)[C@@H](C)O)C(C)C)C(=O)N[C@@H](CCC(=O)O)C(=O)N[C@@H](Cc1c[nH]c2ccccc12)C(=O)N[C@@H](CC(C)C)C(=O)N[C@@H](CCCCN)C(=O)N[C@@H](CCC(N)=O)C(=O)NCC(=O)NCC(=O)N1CCC[C@H]1C(=O)N[C@@H](CO)C(=O)N[C@@H](CCCCN)C(=O)N[C@@H](CCC(=O)O)C(=O)N[C@H](C(=O)N[C@H](C(=O)N[C@@H](CO)C(=O)NCCOCCOCC(=O)NCCCCC(N)C(=O)N1CCSC1)[C@@H](C)CC)[C@@H](C)CC (some centres unmarked) [Compound 5953] | – | 76% | – | – |
| CC[C@H](C)[C@H](NC(=O)[C@H](Cc1ccccc1)NC(=O)[C@H](CC(C)C)NC(=O)[C@H](CCCNC(=N)N)NC(=O)[C@@H](NC(=O)[C@H](C)NC(=O)[C@H](CCC(=O)O)NC(=O)[C@H](CCC(=O)O)NC(=O)[C@H](CCC(=O)O)NC(=O)[C@H](CC(C)C)NC(=O)[C@H](CCC(N)=O)NC(=O)[C@H](CCCCN)NC(=O)[C@H](CO)NC(=O)[C@H](CC(C)C)NC(=O)[C@H](CC(=O)O)NC(=O)[C@H](CO)NC(=O)[C@@H](NC(=O)[C@H](Cc1ccccc1)NC(=O)[C@@H](NC(=O)CNC(=O)[C@H](CCC(=O)O)NC(=O)CNC(=O)[C@@H](N)Cc1c[nH]cn1)[C@@H](C)O)[C@@H](C)O)C(C)C)C(=O)N[C@@H](CCC(=O)O)C(=O)N[C@@H](Cc1c[nH]c2ccccc12)C(=O)N[C@@H](CC(C)C)C(=O)N[C@@H](CCCCN)C(=O)N[C@@H](CCC(N)=O)C(=O)NCC(=O)NCC(=O)N1CCC[C@H]1C(=O)N[C@@H](CO)C(=O)N[C@@H](CCCCN)C(=O)N[C@@H](CCC(=O)O)C(=O)N[C@H](C(=O)N[C@H](C(=O)N[C@@H](CO)C(=O)NCCCC(=O)NCCOCCOCC(=O)NCCCC(=O)NCCCCC(N)C(=O)N1CCSC1)[C@@H](C)CC)[C@@H](C)CC (some centres unmarked) [Compound 5932] | – | 63% | decrease in body weight, measurable at day 2 | body weight does not return to pre-treatment levels by day 5 |
| CC[C@H](C)[C@H](NC(=O)[C@H](Cc1ccccc1)NC(=O)[C@H](CC(C)C)NC(=O)[C@H](CCCNC(=N)N)NC(=O)[C@@H](NC(=O)[C@H](C)NC(=O)[C@H](CCC(=O)O)NC(=O)[C@H](CCC(=O)O)NC(=O)[C@H](CCC(=O)O)NC(=O)[C@H](CC(C)C)NC(=O)[C@H](CCC(N)=O)NC(=O)[C@H](CCCCN)NC(=O)[C@H](CO)NC(=O)[C@H](CC(C)C)NC(=O)[C@H](CC(=O)O)NC(=O)[C@H](CO)NC(=O)[C@@H](NC(=O)[C@H](Cc1ccccc1)NC(=O)[C@@H](NC(=O)CNC(=O)[C@H](CCC(=O)O)NC(=O)CNC(=O)[C@@H](N)Cc1c[nH]cn1)[C@@H](C)O)[C@@H](C)O)C(C)C)C(=O)N[C@@H](CCC(=O)O)C(=O)N[C@@H](Cc1c[nH]c2ccccc12)C(=O)N[C@@H](CC(C)C)C(=O)N[C@@H](CCCCN)C(=O)N[C@@H](CCC(N)=O)C(=O)NCC(=O)NCC(=O)N1CCC[C@H]1C(=O)N[C@@H](CO)C(=O)N[C@@H](CCCCN)C(=O)N[C@@H](CCC(=O)O)C(=O)N[C@H](C(=O)N[C@H](C(=O)N[C@@H](CO)C(=O)NCCCC(=O)NCCOCCOCC(=O)NCCCC(=O)NCCCCC(N)C(=O)N1CCC[C@H]1C#N)[C@@H](C)CC)[C@@H](C)CC (some centres unmarked) [Compound 5933] | – | 87% | decrease in body weight, measurable at day 2 which continues at least through day 5 | – |
| CC[C@H](C)[C@H](NC(=O)[C@H](Cc1ccccc1)NC(=O)[C@H](CC(C)C)NC(=O)[C@H](CCCNC(=N)N)NC(=O)[C@@H](NC(=O)[C@H](C)NC(=O)[C@H](CCC(=O)O)NC(=O)[C@H](CCC(=O)O)NC(=O)[C@H](CCC(=O)O)NC(=O)[C@H](CC(C)C)NC(=O)[C@H](CCC(N)=O)NC(=O)[C@H](CCCCN)NC(=O)[C@H](CO)NC(=O)[C@H](CC(C)C)NC(=O)[C@H](CC(=O)O)NC(=O)[C@H](CO)NC(=O)[C@@H](NC(=O)[C@H](Cc1ccccc1)NC(=O)[C@@H](NC(=O)CNC(=O)[C@H](CCC(=O)O)NC(=O)CNC(=O)[C@@H](N)Cc1c[nH]cn1)[C@@H](C)O)[C@@H](C)O)C(C)C)C(=O)N[C@@H](CCC(=O)O)C(=O)N[C@@H](Cc1c[nH]c2ccccc12)C(=O)N[C@@H](CC(C)C)C(=O)N[C@@H](CCCCN)C(=O)N[C@@H](CCC(N)=O)C(=O)NCC(=O)NCC(=O)N1CCC[C@H]1C(=O)N[C@@H](CO)C(=O)N[C@@H](CCCCN)C(=O)N[C@@H](CCC(=O)O)C(=O)N[C@H](C(=O)N[C@H](C(=O)N[C@@H](CO)C(=O)NCCCC(=O)NCCOCCOCC(=O)NCCCC(=O)NCCCCC(N)C(=O)N1CCS(=O)(=O)C1)[C@@H](C)CC)[C@@H](C)CC (some centres unmarked) [Compound 5955] | – | 36% | decrease in body weight, measurable at day 2 | body weight returns to pre-treatment levels by day 5 |
| CC[C@H](C)[C@H](NC(=O)[C@H](Cc1ccccc1)NC(=O)[C@H](CC(C)C)NC(=O)[C@H](CCCNC(=N)N)NC(=O)[C@@H](NC(=O)[C@H](C)NC(=O)[C@H](CCC(=O)O)NC(=O)[C@H](CCC(=O)O)NC(=O)[C@H](CCC(=O)O)NC(=O)[C@H](CC(C)C)NC(=O)[C@H](CCC(N)=O)NC(=O)[C@H](CCCCN)NC(=O)[C@H](CO)NC(=O)[C@H](CC(C)C)NC(=O)[C@H](CC(=O)O)NC(=O)[C@H](CO)NC(=O)[C@@H](NC(=O)[C@H](Cc1ccccc1)NC(=O)[C@@H](NC(=O)CNC(=O)[C@H](CCC(=O)O)NC(=O)CNC(=O)[C@@H](N)Cc1c[nH]cn1)[C@@H](C)O)[C@@H](C)O)C(C)C)C(=O)N[C@@H](CCC(=O)O)C(=O)N[C@@H](Cc1c[nH]c2ccccc12)C(=O)N[C@@H](CC(C)C)C(=O)N[C@@H](CCCCN)C(=O)N[C@@H](CCC(N)=O)C(=O)NCC(=O)NCC(=O)N1CCC[C@H]1C(=O)N[C@@H](CO)C(=O)N[C@@H](CCCCN)C(=O)N[C@@H](CCC(=O)O)C(=O)N[C@H](C(=O)N[C@H](C(=O)N[C@@H](CO)C(=O)NCCOCCOCC(=O)NCCCC[C@H](N)C(=O)N1CC[S+]([O-])C1)[C@@H](C)CC)[C@@H](C)CC (some centres unmarked) [Compound 5934] | – | 97% | – | – |
